# How the values were obtained:
# Pancreatic CCK Receptor = target: T1, Pancreatic CCK Receptor (Rattus norvegicus, UniProt P30551); assay: Pancreatic Cholecystokinin Receptor Binding Assay (125I-CCK-8); details: added as protease inhibitors
# T1 construct: Pancreatic receptor membranes were prepared by homogenzing a gram of fresh rat pancreas tissue; from tissue; host or cells: rat pancreas membranes
# T1 sequence (P30551 1-444): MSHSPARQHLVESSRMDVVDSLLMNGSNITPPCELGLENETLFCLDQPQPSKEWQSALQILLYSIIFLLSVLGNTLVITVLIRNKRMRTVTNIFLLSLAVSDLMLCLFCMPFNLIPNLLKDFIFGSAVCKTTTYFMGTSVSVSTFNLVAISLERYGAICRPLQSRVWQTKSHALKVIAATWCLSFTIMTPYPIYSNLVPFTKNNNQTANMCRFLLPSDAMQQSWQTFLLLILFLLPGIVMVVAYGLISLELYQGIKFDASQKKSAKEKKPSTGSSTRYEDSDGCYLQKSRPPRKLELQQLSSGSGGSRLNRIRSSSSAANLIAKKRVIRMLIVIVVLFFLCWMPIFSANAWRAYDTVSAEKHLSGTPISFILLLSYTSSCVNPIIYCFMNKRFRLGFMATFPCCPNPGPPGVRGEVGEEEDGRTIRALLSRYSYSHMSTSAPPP
# Method: Radiolabeled CCK-8 was purchased from New England Nullear as ^125 I-CCK-8. Receptor binding was performed according to Innis and Snyder Proc. Natl. Acad. Sci., 77, 6917 (1980), with the minor modification of adding the additional protease inhibitors, phenylmethane sulfonyl fluoride (PMSF) and o-phenanthroline, which have no effect on the ^125 I-CCK receptor binding assay. All assays were performed in triplicate. Pancreatic receptor membranes were prepared by homogenzing a gram of fresh rat pancreas tissue in 30 ml TRIS-HCl (50 mM), pH 7.7 using a Brinkman polytron PT10 (Brinkman). The homogenate was washed twice and collected by centrifugation at 48,000×g at 4° C. for 10 minutes. The membranes were resuspended in assay buffer consisting of 5 mM dithiothieitol, 0.1 mM bacitiacin, 5 mM MgCl2 ·H2 O, 0.2% heat denatured BSA, 1.2 mM PMSF and 0.5 mM O-phenanthroline at a concentration of 100 ml per gram of pancreas. […] The reaction mixtures were mixed briefly and placed in a 37° C. water bath with gentle shaking for 30 minutes. […] The filters were washed with 3×4 ml of the same buffer and the radioactivity associated with the filters was counted in a Beckman Gamma 5500 counter. […] The dried samples were then brought up in methanol/H2 O (1:1) and ready for assay.
# gram-positive bacteria = details: cited from earlier work
# [1] = vs CCK-33; cited from earlier work
# gastric acid secretion = details: cited from earlier work
compound,measurement,setting,value
c1cnc2c(c1)ccc1cccnc12 [o-phenanthroline],effect on the 125I-CCK receptor binding assay,Pancreatic CCK Receptor,no effect
"O=S(=O)(F)Cc1ccccc1 [phenylmethane sulfonyl fluoride (PMSF), phenylmethane sulfonyl fluoride]",effect on the 125I-CCK receptor binding assay,Pancreatic CCK Receptor,no effect
CC1=C\[C@@H](O)CC(=O)Cc2nc(co2)C(=O)N2CCC=C2C(=O)O[C@H](C(C)C)[C@H](C)/C=C/C(=O)NC\C=C\1 [Virginiamycin M1],antibacterial specificity,gram-positive bacteria,generally specific for gram-positive bacteria
C-terminal octapeptide: C-terminal octapeptide of CCK,efficacy relative to CCK-33,[1],same efficacy
Gastrin-17,potency for stimulating gastric acid secretion relative to Gastrin-13,gastric acid secretion; vs Gastrin-13,2.5 times more potent
same,potency for stimulating gastric acid secretion relative to Gastrin-34,gastric acid secretion; vs Gastrin-34,5 times more potent

# Source: US4894370A, “Compositions having fermentation analogs of virginiamycin M1 as active ingredient” (Merck & Co., Inc., priority 1988, dated 1990)
